Assay results published in patent US8329736B2, “Triazole compounds that modulate HSP90 activity” (Synta Pharmaceuticals, Corp., priority 2006, dated 2012).

Tested on: Her2
Assay: Degradation of Her2 in BT-474 cells, Western blot (Method 1)
Format: cell-based, human
Conditions: 0.5 μM, overnight
Method: Human high-Her2 breast carcinoma BT474 (HTB-20), SK-BR-3 (HTB-30) and MCF-7 breast carcinoma (HTB-22) from American Type Culture Collection, VA, USA were grown in Dulbecco's modified Eagle's medium with 4 mM L-glutamine and antibiotics (100 IU/ml penicillin and 100 ug/ml streptomycine; GibcoBRL). To obtain exponential cell growth, cells were trypsinized, counted and seeded at a cell density of 0.5×10^6 cells/ml regularly, every 3 days. All experiments were performed on day 1 after cell passage.
BT-474 cells are treated with 0.5 μM, 2 μM, or 5 μM of 17AAG (a positive control) or 0.5 μM, 2 μM, or 5 μM of a compound of the invention overnight in DMEM medium. After treatment, each cytoplasmic sample is prepared from 1×10^6 cells by incubation of cell lysis buffer (#9803, cell Signaling Technology) on ice for 10 minutes. The resulting supernatant used as the cytosol fractions is dissolved with sample buffer for SDS-PAGE and run on a SDS-PAGE gel, blotted onto a nitrocellulose membrane by using semi-dry transfer. Non-specific binding to nitrocellulose is blocked with 5% skim milk in TBS with 0.5% Tween at room temperature for 1 hour, then probed with anti-Her2/ErB2 mAb (rabbit IgG, #2242, Cell Signaling) and anti-Tubulin (T9026, Sigma) as housekeeping control protein. […]

`C=CCNC1=C2C[C@@H](C)C[C@H](OC)[C@H](O)[C@@H](C)/C=C(\C)[C@H](OC(N)=O)[C@@H](OC)/C=C\C=C(/C)C(=O)NC(=CC1=O)C2=O` [Compound 17AAG, 17-allylamino-17-demethoxygeldanamycin] was tested, and the “degradation of Her2” value was “partial degradation of Her2”.
